Experiments:
[1] = system: hGH with para-acetylphenylalanine substituted for tyrosine at position 35 (hGH-pAcF), oxime formation with mono hydroxylamine 30 K PEG; test: Screening of potential accelerants using 30 K PEG hGH-pAcF conjugation (SDS-PAGE); set-up: species or system human; conditions: 50 mM accelerant; hGH 8 mg/ml; hGH:PEG 1:2; 28° C.; 16 hours
Protocol: Human growth hormone (hGH) with para-acetylphenylalanine substituted for tyrosine at position 35 was used to screen a panel of 20 compounds (FIG. 5). hGH was buffer exchanged into hGH reaction buffer (20 mM NaOAc, 20 mg/ml glycine, 5 mg/ml Mannitol, 1 mM EDTA, pH 4.0) using a PD 10 column, and concentrated to 10 mg/ml using a Centrocon (10 K MWCO) concentrator. hGH (10 μl) was mixed with 3.6 μl mono hydroxylamine 30 K PEG (2.5 mM), 3 μl of potential accelerant solution (200 mM in hGH reaction buffer) and buffer to give a final volume of 30 μl. The molar ratio of hGH:PEG was 1:2. The reaction mixtures were incubated at 28° C. for 16 hours and 36 hours and analyzed by SDS-PAGE (FIG. 6). The last lane in each gel was a control reaction (no accelerant). Compounds 6, 7, 8, 10, and 20 were accelerants. Two compounds from the panel, compounds 7 and 20 (acetic hydrazide) (pictured in FIG. 5), were accelerants and were further evaluated under similar reaction conditions with a higher hGH protein concentration (8 mg/ml). Lane 1 was a reaction mixture with a hGH:PEG molar ratio of 1:2 and 50 mM of accelerant compound 7. Lane 2 was a reaction mixture with a hGH:PEG molar ratio of 1:2 and 50 mM of accelerant compound 20. Lane 3 was a reaction mixture with a hGH:PEG molar ratio of 1:2 with no accelerant. Lane 4 was a reaction mixture with a hGH:PEG molar ratio of 1:5 with no accelerant.

[2] = molecular target: wild type hGH (Homo sapiens, UniProt P01241); test: LCMS analysis of hGH after incubation with accelerant; conditions: wild type hGH 5.8 mg/ml; up to 200 mM accelerant; 28° C.; 48 hour
Sequence of wild type hGH (P01241 with tags, fused parts or gaps): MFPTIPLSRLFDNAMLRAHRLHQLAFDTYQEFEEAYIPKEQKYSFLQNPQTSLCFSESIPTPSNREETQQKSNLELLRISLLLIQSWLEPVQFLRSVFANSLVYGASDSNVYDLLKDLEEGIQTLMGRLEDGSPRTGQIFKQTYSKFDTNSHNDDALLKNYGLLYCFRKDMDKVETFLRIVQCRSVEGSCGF
Protocol: In hGH reaction buffer, wild type hGH (5.8 mg/ml) was incubated with various concentrations of the accelerant acetic hydrazide (200 mM, 100 mM, 50 mM, 25 mM, 12.5 mM, 6.25 mM and 0 mM) at 28° C. for 48 hours. The accelerant was removed through dialysis (10 k MWCO). The resulting protein solutions were analyzed by LCMS (FIG. 8).]
The measured molecular weights of hGH in all the conditions are same and match theoretical value 22256.

[3] = system: scFv 108 259-pAcF; test: One step dimerization of scFv-pAcF with homobifunctional 2 K hydroxylamine PEG linker (SDS-PAGE); conditions: 47 mM acetic hydrazide; 147 μM homobifunctional 2 K PEG linker; pH 4.0; 28° C.; without accelerant very little dimer after 20 hours
Protocol: Single chain Fv (scFv) 108 protein with para-acetylphenylalanine substituted at position 259 (scFv 108 259-pAcF) was used the following conjugation experiment. scFv 108 259-pAcF in storage buffer was buffer exchanged into reaction buffer (150 mM NaCl, 20 mM NaOAc, 5 mM EDTA, pH 4.0) using a PD 10 column. The protein solution was concentrated to 0.5 mM, mixed with hydroxylamine homobifunctional 2 K PEG linker 2.5 mM stock solution and supplemented with acetic hydrazide as accelerant. The final reaction mixture consisted of 147 μM homobifunctional 2 K PEG linker, the corresponding concentration of pAcF-substituted scFv and 47 mM acetic hydrazide. The reaction mixtures were incubated at 28° C. and analyzed at different time points (6 hours, 20 hours, 44 hours) by SDS-PAGE (FIG. 2).
To make the one-step reaction more efficient and more practical with the homobifunctional 2 K PEG linker, accelerants were used to facilitate the dimerization process. Without accelerant, very little dimer product could be detected after 20 hours by SDS-PAGE. Lane 4 of the 6 hour, 20 hour, and 44 hour gels show reaction mixtures with a scFv:PEG linker molar ratio of 2.0:1 without the accelerant acetic hydrazide. […] Lane 1 of the 6 hour, 20 hour, and 44 hour gels show reaction mixtures with a scFv:PEG linker molar ratio of 1.6:1 with acetic hydrazide. […]

[4] = system: scFv 108 259-pAcF; test: Mono hydroxylamine 30 K PEG and scFv-pAcF conjugation (SDS-PAGE); conditions: 28° C.
Protocol: scFv 108 259-pAcF 0.5 mM stock solution in reaction buffer mentioned above (10 μl) is mixed with various amounts of mono hydroxylamine 30 K PEG 2.5 mM stock solution, 2.2 μl of 200 mM acetic hydrazide stock solution and reaction buffer. The reaction mixtures with a final reaction volume of 22 μl have different molar ratios of scFv:PEG (1:3 or 1:5). The accelerating effect of acetic hydrazide on conjugation of mono hydroxylamine 30 K PEG and scFv was evaluated at protein and PEG molar ratio of 1:3 and 1:5 with and without accelerant. The reaction mixtures were incubated at 28° C. and were analyzed at different time points (20 hours, 44 hours) by SDS-PAGE (FIG. 3). Lanes 1, 2, and 3 show 100%, 20%, and 10% of the starting scFv-pAcF, respectively. Lane 4 of the 20 hour and 44 hour gels show reaction mixtures with a scFv:PEG molar ratio of 1:3 with 20 mM acetic hydrazide. Lane 5 of the 20 hour and 44 hour gels show reaction mixtures with a scFv:PEG molar ratio of 1:3 without accelerant. Lane 6 of the 20 hour and 44 hour gels show reaction mixtures with a scFv:PEG molar ratio of 1:5 with 20 mM acetic hydrazide. […]
Similarly, the relative conjugation efficiency of different concentrations of the accelerant acetic hydrazide (5 mM, 20 mM, 80 mM) with a scFv:30 K PEG mono hydroxylamine molar ratio of 1:2 were evaluated (FIG. 4). […]

## CC(=O)NN [Compound 20, acetic hydrazide]
[1]
  acceleration of hGH-pAcF / 30 K PEG conjugation at higher protein concentration: shown to catalyze the reaction
[2]
  covalent modification of protein by accelerant (LCMS): no covalent modification could be detected
[3]
  dimer product formation: the dimer product appeared after 6 hours
[4]; 5 mM, 20 mM, 80 mM acetic hydrazide, scFv:PEG 1:2
  relative conjugation efficiency at different accelerant concentrations: the higher concentration of accelerant, the faster the conjugation
[4]; 20 mM acetic hydrazide, scFv:PEG 1:3 and 1:5, with and without accelerant, 20 hours, 44 hours
  accelerating effect on conjugation of mono hydroxylamine 30 K PEG and scFv: accelerates the conjugation reaction
